Measurements as given in US10875898B2, “Bioactive protein, use thereof and method for its production” (Koppert B.V., priority 2014, dated 2020).

Columns and labels:
Type in all cases: in vivo
[1] = tested on: cucumber; assay: combined application of HYTLO1, HA and 6PP on cucumber seed germination and growth promotion; parameters: Root length, increase % vs. Control / Plant fresh weight, increase % vs. Control / Plant dry weight, increase % vs. Control / plant height, increase % vs. Control: concentration or dose not given beside the values
Procedure: Tested metabolites include 6PP and Harzianic Acid, and experiments were performed on seed germination, stem or root elongation as well fresh/dry weight. The results shown in Table 1 were obtained by using cucumber seeds coated with the solutions of the tested compounds, that were then transferred in Petri dishes and left to germinate on filter humid paper. First seed germination was evaluated, then the germinated seedlings were transplanted into pots containing sterilised soil. Other two treatments with the purified molecules were performed at 10 days interval, by drenching the soil with the solutions at the final concentrations of 10^−7M for 6PP and HA, and 10^−8M for HYTLO1. In two-compounds application, half dose of each molecule was used. In three-compound applications, one third of the dose of each molecules was used. Each treatments consisted of 8 plants. Results were collected 30 days after seed coating. Control was produced by adding water instead of the molecule solutions. The effect of the minimal amounts of solvents eventually contained in HA and 6PP solution was preliminary tested, with no differences observed in comparison to water control. The results shown in Table 1 that all of the three tested molecules have a significant beneficial effect on seed germination and plant growth, and that they can be synergistically combined for enhanced effectiveness.

[2] = tested on: tomato leaves; assay: activation of tomato plant defense responses after leaf injection
Procedure: FIG. 5: Effect of purified HYTLO1 (5 μM) injected on tomato leaves after 48 hours under UV light. Fluorescence is due to accumulation of compounds related to plant defense response.
FIG. 6: Effect of purified HYTLO1 ([…]) on the activation of tomato plant defense responses. Leaves were injected with […] of the protein solution and analyzed after 24 and 48 hours for the production of: (A) anion superoxide (XTT assay, mg p.s.=milligram of dry weight), (B) SOD activity (U/mg proteins), (C) ROOH peroxide accumulation (FOX1 assay), (D) LOX activity, (E) phytoalexin rishitin accumulation (g f.w.=gram of leaf fresh weight). Values are means+S.E. Methods used are the followings. Lyophilized plant tissues (10 mg) from HYTLO1-injected and -non injected tomato leaves were collected at different time points after inoculation (from 6 to 48 h) and homogenized. Anion superoxide was detected by measuring the reduction of 2,3-bis(2-methoxy-4-nitro-5-sulfophenyl)-5-[(phenylamino) carbonyl]-2H-tetrazolium hydroxide (XTT) to formazan, according to Sutherland, M. W., and B. A. Learmonth, 1997, Free Radical Research, 27:283-289, with modifications reported by Castoria, R., et al., 2003, Phytopathology, 93:564-572. Absorbance at 490 nm was measured in a microplate reader. XTT levels were expressed as mean absorbance values mg-1±standard errors. The activities of SOD, pH 7.8 and 10.0 (EC 1.15.1.1) and LOX enzymes (EC 1.13.11.12) were quantified as described by Reverberi M, et al., 2005, Free Radical Research, 39:637-647. Total hydroperoxides (ROOH) were detected by using the FOX spectrophotometric assay by monitoring the oxidation of xylenol orange at 560 nm (Ferrous ion oxidation xylenol orange: FOX-1) (Banerjee D, et al., 2003, Clinica Chimica Acta, 337:147-152). Quantification of the phytoalexins rishitin was performed by treating the leaf samples with methylene chloride (2 ml) in the presence of 100 mg of BHT. The tubes were left in a fume hood for 15/20 minutes and occasionally shaken. The extracts were filtered on filter paper Whatmann 3 MM and dried under nitrogen flow. Rishitin was quantified by GC-MS as described in Fanelli et al., 1992, Natural Toxins 1: 136-146.
FIG. 7: Effect of purified HYTLO1 on the activation of tomato plant defense responses. Leaves were injected with HYTLO1 at the indicated concentrations and analyzed after 48 hours by Real Time PCR for the accumulation of PR (Pathogenesis-Related)-proteins PR1, PR2 and PIN2 RNA (for methods see Tucci M., et al., 2011, Molecular Plant Pathology, 12:341-354) Values indicated the n. of fold increase vs. untreated control.
We analyzed the plant biochemical reaction to HYTLO1, which resulted stimulatory for the formation of the superoxide anion and hydrogen peroxide, for anion superoxide dismutase (SOD) and LOX activity, and the accumulation of the phytoalexin rishitin (FIG. 6).

[3] = tested on: cucumber; assay: combined application of HYTLO1 and Trichoderma spp. strains on cucumber growth promotion; conditions: 20 days after seed coating
Procedure: The results are shown in Table 2 and expressed in terms of increased stem and root length or fresh/dry weight. Cucumber seeds were coated with the purified molecule solutions and/or spore suspension, transferred into Petri dishes and left to germinate on humid filter paper. Germinated seedlings were transplanted into pots containing sterilised soil. Other two treatments with the purified molecules were performed at 7 days interval, by drenching the soil with the solutions at the final concentrations of 10^−8M for HYTLO1, and 1 ml of a 10^7 spore/ml suspension per 10 ml soil. In two-compounds application, half dose of each molecule was used. Each treatments was performer on at least 8 plants, and results were collected 20 days after seed coating. This experiment confirmed the beneficial effect exerted by HYTLO1 alone and in combination with Trichoderma species on plant growth. […] In particular, and only as an example, combined treatment with T. harzianum T22+HYTLO1, and T. harzianum strain TH1+HYTLO1 determined a significant increase in plant growth promotion effect of up to 33% more compared to controls (synergistic results as by the Limpel's formula are underlined in the Table).

[4] = 0.15, 2.5, 5.0 mM, 24 and 48 hours

“HYTLO1: about 7 KDa Type II hydrophobin protein from Trichoderma longibrachiatum strain MK1, 71 aa, SEQ ID NO: 1” was tested, and the “Plant dry weight” value ([1]; 30 days after seed coating, SD +− 1.3 g) was 8.4 g, the “Root length (cm)” value ([1]; 30 days after seed coating, SD +− 2.1 cm) was 14.6 cm and the “Plant fresh weight” value ([1]; 30 days after seed coating, SD +− 2.5 g) was 24.76 g. For the same substance, the “plant height (cm)” value ([1]; 30 days after seed coating, drench 10^−7M 6PP and HA, 10^−8M HYTLO1, half or one third dose in combinations, SD +− 2.5 cm) was 24.9 cm, the “Seed germination (24 h)” value ([1]; coated cucumber seeds on humid filter paper, SD +− 9%) was 78% and the “Seed germination (24 h), increase % vs. Control” value ([1]; vs water control) was “+30%”. For the same substance, the “Plant dry weight, increase % vs. Control” value ([1]; vs water control, 30 days) was 51.2%, the “Plant fresh weight, increase % vs. Control” value ([1]; vs water control, 30 days) was 34.1% and the “Root length, increase % vs. Control” value ([1]; vs water control, 30 days) was 17.1%. For the same substance, the “accumulation of fluorescent compounds under UV light” value ([2]; 5 μM injected on tomato leaves, after 48 hours) was “accumulation of fluorescent compounds”, the LOX activity [2, 4] was “stimulatory” and the “accumulation of the phytoalexin rishitin” value [2, 4] was “stimulatory”. For the same substance, the “anion superoxide dismutase (SOD) activity” value [2, 4] was “stimulatory”, the “formation of hydrogen peroxide (ROOH, FOX1 assay)” value [2, 4] was “stimulatory” and the “formation of the superoxide anion (XTT assay)” value [2, 4] was “stimulatory”. For the same substance, the “defense responses in leaves distant from the site of application” value ([2]; tomato leaf injection) was “systemic effect”, the “activation of defense-related genes PR1, PR2 and PIN1 (RT-PCR)” value ([2]; tomato leaves, 48 hours) was “induced the activation” and the “plant height (cm), percentage increase compared to water control” value ([3]; 10^−8M HYTLO1, 10^7 spore/ml, half dose in combinations, SD +− 1.5) was 1.8%. For the same substance, the “Root length (cm), percentage increase compared to water control” value ([3]; SD +− 2.0) was 8.5%, the “Plant fresh weight (g), percentage increase compared to water control” value ([3]; SD +− 2.8) was 4.2% and the “Plant dry weight (g), percentage increase compared to water control” value ([3]; SD +− 3.1) was 7.3%.
